Experimental data taken from publication PMC7828447, “Design, Synthesis and Biological Evaluation of Arylpyridin-2-yl Guanidine Derivatives and Cyclic Mimetics as Novel MSK1 Inhibitors. An Application in an Asthma Model” (Molecules, 2021).
Structures can show the parent of a compound that is named as a salt. Where two headings read alike, the source gives them in different places.

What was measured:
[1] = molecular target: T1, human synthetic MSK1 (14-438-K, Millipore) (Homo sapiens, UniProt O75582); assay: MSK1 enzymatic inhibition assay (Kinase-Glo luminescence); format: biochemical; settings: for MSK1 inhibitory activity (in words): tested at 1 and 10 µM; for inhibition at 1 µM: read-out: MSK1 % Inhibition 1 µM; for inhibition at 10 µM: read-out: MSK1 % Inhibition 10 µM; for IC50: 8 concentrations 0.03-100 µM
T1 construct: purchased Millipore 14-438-K
Procedure: All results are summarized in Table 1, Table 2, Table 3, Table 4 and Table 5 and on Figure 4. […]
An orthogonal luminescence-based assay Kinase-Glo® (Promega, Madison, WI, USA) was used to validate the hits, quantifying the amount of the remaining ATP in the solution following the kinase reaction. Enzymatic reactions were performed up to 4h at room temperature in presence of 3 µM ATP. All compounds were tested in quadruplicates at 1 µM and 10 µM. […] Luminescence was measured with EnVision Plate Reader (Perkin Elmer).

[2] = compound at 1 µM, ± Standard Deviation (n = 4)
[3] = compound at 10 µM, ± Standard Deviation (n = 4)
[4] = ± Standard Deviation (n = 4), read-out: MSK1 IC50
[5] = MSK1 IC50, ± Standard Deviation (n = 4)

T1 sequence (O75582 whole entry): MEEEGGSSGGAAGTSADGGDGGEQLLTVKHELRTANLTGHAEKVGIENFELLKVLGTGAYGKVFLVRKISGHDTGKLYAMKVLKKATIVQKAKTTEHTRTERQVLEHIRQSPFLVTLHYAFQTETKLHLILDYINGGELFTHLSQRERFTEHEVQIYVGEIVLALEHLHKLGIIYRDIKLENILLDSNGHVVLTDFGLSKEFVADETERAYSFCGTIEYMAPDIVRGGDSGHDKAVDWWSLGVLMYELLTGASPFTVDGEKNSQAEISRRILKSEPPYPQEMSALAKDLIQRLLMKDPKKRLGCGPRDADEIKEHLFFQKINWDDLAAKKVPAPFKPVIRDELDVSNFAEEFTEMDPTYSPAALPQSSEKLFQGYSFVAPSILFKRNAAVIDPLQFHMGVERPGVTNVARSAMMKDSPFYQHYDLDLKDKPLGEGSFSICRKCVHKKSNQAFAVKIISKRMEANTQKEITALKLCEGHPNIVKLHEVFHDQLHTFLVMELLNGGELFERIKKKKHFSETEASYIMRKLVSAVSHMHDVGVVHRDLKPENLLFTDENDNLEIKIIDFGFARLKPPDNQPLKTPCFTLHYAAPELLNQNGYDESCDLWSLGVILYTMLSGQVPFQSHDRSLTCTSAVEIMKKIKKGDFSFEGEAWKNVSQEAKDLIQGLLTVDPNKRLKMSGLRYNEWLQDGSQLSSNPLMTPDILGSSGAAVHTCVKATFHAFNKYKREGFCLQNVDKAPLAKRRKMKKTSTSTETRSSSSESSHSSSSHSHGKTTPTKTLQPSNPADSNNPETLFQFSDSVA

| Molecule | MSK1 inhibitory activity (in words) [1] | inhibition at 1 µM [1, 2] | inhibition at 10 µM [1, 3] | other results |
| --- | --- | --- | --- | --- |
| 6-Phenyl-3,4-dihydrobenzodiazepin-2-amine Hydrochloride [Compound 57] | inactive | – | – | MSK1 % Inhibition 1 µM [1, 2]: 8±6%; MSK1 % Inhibition 10 µM [1, 3]: 12±6% |
| N=C(N)Nc1cccc(N2CCCCC2)n1 (as salt: salt) [Compound 31, 2-guanidino-6-piperidinopyridine] | – | – | – | melting point: 196 to 197 °C |
| N=C(N)Nc1cccc(-c2ccccc2F)n1 (as salt: trifluoroacetate) [Compound 1j, 1-[6-(2-Fluorophenyl)pyridin-2-yl] guanidiniumtrifluoroacetate] | – | – | – | melting point: 199 to 200 °C |
| Cc1ccccc1-c1cccc(NC(=N)N)n1 (as salt: trifluoroacetate) [Compound 1l, 1-[6-(2-Methylphenyl)pyridin-2-yl] guanidiniumtrifluoroacetate] | – | – | – | melting point: 168 to 169 °C |
| N=C(N)Nc1cccc(-c2ccc(Cl)cc2Cl)n1 (as salt: trifluoroacetate) [Compound 1p, 1-[6-(2,4-Dichlorophenyl)pyridin-2-yl] guanidiniumtrifluoroacetate] | – | – | – | melting point: 196 to 197 °C |
| N=C(N)Nc1cccc(-c2cc(Cl)ccc2Cl)n1 (as salt: trifluoroacetate) [Compound 1q, 1-[6-(2,5-Dichlorophenyl)pyridin-2-yl] guanidiniumtrifluoroacetate] | – | – | – | melting point: 151 to 152 °C |
| N=C(N)Nc1cccc(-c2ccncc2)n1 (as salt: trifluoroacetate) [Compound 1r, 1-[6-(Pyridin-4-yl)pyridin-2-yl] guanidiniumtrifluoroacetate] | – | – | – | melting point: 208 to 209 °C |
| N=C(N)Nc1cccc(Cc2ccccc2)n1 (as salt: trifluoroacetate) [Compound 17, 1-(6-Benzylpyridin-2-yl) guanidiniumtrifluoroacetate] | – | – | – | melting point: 161 to 162 °C |
| N=C(N)Nc1cccc(-c2cccnc2Cl)n1 [Compound 1t, 1-(2′-Chloro-[2,3′-bipyridin]-6-yl) guanidiniumtrifluoroacetate] | – | – | – | IC50 [1, 5]: 12.6 ± 4 µM; inhibition at 10 µM [1]: 69 ± 11% |
| COc1ncccc1-c1cccc(NC(=N)N)n1 [Compound 1u, 1-(2′-Methoxy-[2,3′-bipyridin]-6-yl) guanidiniumtrifluoroacetate] | abolished the inhibitory activity | – | – | IC50 [1, 5]: > 30 µM; inhibition at 10 µM [1]: 42 ± 7% |
| N=C(N)Nc1ccc(-c2ccccc2)cn1 [Compound 12, 5-phenyl pyridinylguanidine] | inactive | -10 ± 2% | -11 ± 1% | – |
| N=C(N)Nc1cc(-c2ccccc2)ccn1 [Compound 13] | inactive | -4 ± 1% | 5 ± 1% | – |
| N=C(N)Nc1ncccc1-c1ccccc1 [Compound 14] | inactive | 1 ± 5% | 11 ± 5% | – |
| N=C(N)Nc1cccc(Cc2ccccc2)n1 [Compound 17, 1-(6-Benzylpyridin-2-yl) guanidiniumtrifluoroacetate] | inactive | – | – | inhibition at 1 µM [1]: -2 ± 1%; inhibition at 10 µM [1]: -2 ± 3% |
| N=C(N)Nc1cccc(CCc2ccccc2)n1 [Compound 24] | inactive | -4 ± 1% | -8 ± 1% | – |
| N=C(N)Nc1ccc(CCc2ccccc2)cn1 [Compound 25] | – | 2 ± 4% | 6 ± 4% | – |
| N=C(N)Nc1cccc(N2CCCCC2)n1 [Compound 31, 2-guanidino-6-piperidinopyridine] | totally inactive | – | 16 ± 4% | – |
| NC(=S)Nc1cccc(-c2ccccc2)n1 [Compound 33, 1(6-phenylpyridin-2-yl)thiourea] | inactive | 2 ± 10% | 5 ± 3% | – |
| NC1=Nc2ccc(-c3ccccc3)cc2CN1 [Compound 43] | – | 7 ± 9% | 9 ± 6% | – |
| Nc1nc2cc(-c3ccccc3)ccc2[nH]1 [Compound 50] | – | -7 ± 5% | 4 ± 4% | – |
| O=c1[nH]c2cccc(-c3ccccc3Cl)c2[nH]1 [Compound 64] | inactivity | -18 ± 5% | 0% | – |
| Nc1nc2c(-c3ccccc3Cl)cccc2s1 [Compound 67] | inactivity | -28 ± 7% | 4 ± 14% | – |
| Nc1nc2cccc(-c3ccccc3Cl)c2n1CCc1ccccc1 [Compound 75] | – | -6 ± 2% | 1 ± 2% | – |

Second part, led by results:

| MSK1 inhibitory activity (in words) [1] | inhibition at 1 µM [1, 2] | inhibition at 10 µM [1, 3] | Molecule | other results |
| --- | --- | --- | --- | --- |
| inactive | -4 ± 5% | 23 ± 1% | N=C(N)Nc1cccc(-c2ccc(Cl)cc2)n1 [Compound 1b] | – |
| inactive | -6 ± 2% | -1 ± 5% | N=C(N)Nc1cccc(-c2ccc(C(F)(F)F)cc2)n1.O=C(O)C(F)(F)F [Compound 1c, 1-[6-(4-Trifluoromethylphenyl)pyridin-2-yl] guanidinium trifluoroacetate] | melting point: 248 to 249 °C |
| inactive | -5 ± 3% | -3 ± 4% | COc1ccc(-c2cccc(NC(=N)N)n2)cc1 [Compound 1d] | – |
| – | 0% | 45 ± 5% | N=C(N)Nc1cccc(-c2cccc(Cl)c2)n1 [Compound 1e] | IC50 [1, 4]: 9.7 ± 1 µM |
| inactive | -7 ± 4% | 16 ± 4% | COc1cccc(-c2cccc(NC(=N)N)n2)c1 [Compound 1f] | – |
| – | – | 33 ± 8% | N=C(N)Nc1cccc(-c2ccoc2)n1.O=C(O)C(F)(F)F [Compound 1g, 1-[6-(Furan-3-yl)pyridin-2-yl] guanidinium trifluoroacetate] | IC50 [1, 4]: > 30 µM; melting point: 219 to 221 °C |
| totally inactive | – | 1 ± 6% | N=C(N)Nc1cccc(-c2cc3ccccc3o2)n1.O=C(O)C(F)(F)F [Compound 1h, 1-[6-(1-Benzofuran-2-yl)pyridin-2-yl] guanidinium trifluoroacetate] | melting point: 269 to 270 °C |
| – | 10 ± 5% | 62 ± 15% | N=C(N)Nc1cccc(-c2cccc(C(F)(F)F)c2Cl)n1 [Compound 1i, 1-[6-(2-chloro-3-trifluoromethylphenyl)pyridin-2-yl] guanidinium trifluoroacetate] | IC50 [1, 4]: 8.6 ± 0.9 µM |
| – | 62 ± 8% | 95 ± 8% | N=C(N)Nc1cccc(-c2ccccc2Cl)n1 [Compound 1k] | IC50 [1, 4]: 0.6 ± 0.1 µM |
| – | 4 ± 8% | 48 ± 15% | Cc1ccccc1-c1cccc(NC(=N)N)n1 [Compound 1l, 1-[6-(2-Methylphenyl)pyridin-2-yl] guanidiniumtrifluoroacetate] | IC50 [1, 4]: 3.5 ± 0.3 µM |
| – | 4 ± 2% | 38 ± 9% | N=C(N)Nc1cccc(-c2ccccc2C(F)(F)F)n1.O=C(O)C(F)(F)F [Compound 1m, 1-[6-(2-Trifluoromethylphenyl)pyridin-2-yl] guanidinium trifluoroacetate] | IC50 [1, 4]: 8.1 ± 1.2 µM; melting point: 157 to 158 °C |
| – | 16 ± 3% | 66 ± 12% | COc1ccccc1-c1cccc(NC(=N)N)n1 [Compound 1n] | IC50 [1, 4]: 2.3 ± 0.3 µM |
| – | 7 ± 3% | 71 ± 13% | N=C(N)Nc1cccc(-c2cccc(Cl)c2Cl)n1.O=C(O)C(F)(F)F [Compound 1o, 1-[6-(2,3-Dichlorophenyl)pyridin-2-yl] guanidinium trifluoroacetate] | IC50 [1, 4]: 2.3 ± 0.3 µM; melting point: 190 to 191 °C |
| – | 2 ± 2% | 31 ± 7% | N=C(N)Nc1cccc(-c2ccc(Cl)cc2Cl)n1 [Compound 1p, 1-[6-(2,4-Dichlorophenyl)pyridin-2-yl] guanidiniumtrifluoroacetate] | IC50 [1, 4]: > 30 µM |
| – | – | 18 ± 2% | N=C(N)Nc1cccc(-c2ccncc2)n1 [Compound 1r, 1-[6-(Pyridin-4-yl)pyridin-2-yl] guanidiniumtrifluoroacetate] | – |
| – | – | 70 ± 7% | N=C(N)Nc1cccc(-c2cccnc2)n1 [Compound 1s, 1-[6-(Pyridin-3-yl)pyridin-2-yl] guanidinium trifluoroacetate] | IC50 [1, 4]: 5.8 ± 0.6 µM |
| – | -7 ± 4% | -5 ± 5% | COc1ccc(-c2cccc3c2CNC(N)=N3)cc1 [Compound 37c, 5-(4-Methoxyphenyl)-3,4-dihydroquinazolin-2-amine Hydrobromide] | – |
| – | 20 ± 3% | 75 ± 8% | Nc1nc2c(-c3cccc(Cl)c3Cl)cccc2[nH]1 [Compound 49e, 4-(2,3-Dichlorophenyl)-1H-benzo[d]imidazol-2-amine Hydrobromide] | IC50 [1, 4]: 3.2 ± 0.2 µM |
| – | -6 ± 3% | 41 ± 6% | Nc1nc2c(-c3ccccc3Cl)cccc2n1CCc1ccccc1 [Compound 74a] | – |
| – | -2 ± 4% | 49 ± 13% | Nc1nc2c(-c3ccccc3Cl)cccc2n1CCO [Compound 74b] | – |
| – | -4 ± 2% | 37 ± 5% | Nc1nc2c(-c3ccccc3Cl)cccc2n1CCCNC(=O)c1ccccc1 [Compound 74c] | – |
| – | 1 ± 3% | 5 ± 3% | Nc1nc2c(-c3ccccc3Cl)cccc2n1CCCCc1ccccc1 [Compound 74d] | – |
